According to patent US20080166805A1, “Culturing human cells and tissues in an N-glycolylneuraminic acid-free environment” (The Regents of the University of California, priority 2005, published 2008):

Columns and labels:
Assay type in all cases: cell-based
[1] = tested on: Caco-2 cells; assay: Neu5Gc and ManNGc feeding experiment, Caco-2 cells (fractionation, DMB-HPLC); details: Caco-2 cells fed 3 mM for 3 days, grown in human serum
Protocol: Cell Culture—Caco-2 cells were propagated in alpha-MEM containing GLUTAMAX™ (Invitrogen, San Diego, Calif.) and a mixture of ribonucleosides and deoxyribonucleosides (Gibco/Invitrogen, San Diego, Calif.) supplemented with 20% FCS. All the fibroblast cell lines and CHO-K1 cells were cultured in the same media supplemented respectively with 15% non-heat inactivated FCS or 10% heat inactivated FCS. Chimpanzee Fred and human […] EBV-transformed lymphoblasts were cultured in RPMI-1640 (Gibco/Invitrogen, San Diego, Calif.) supplemented with 10% heat inactivated FCS or 15% human serum. All of the cultures were maintained at 37° C., 5% CO2 atmosphere. In order to deplete any remaining Neu5Gc from FCS, the cells were split and cultured prior to Neu5Gc feeding experiments for at least 4 days in alpha-MEM supplemented with an adequate percentage of heat-inactivated premium human serum instead of FCS. The cells were then maintained under the same conditions during the whole feeding experiment. The human serum was heat inactivated at 56° C. for 30 min. before use. […]
Fractionation of the Labeled Cells—Washed cell pellets were sonicated into 500 μL of 20 mM sodium phosphate buffer or 20 mM Tris-HCl, pH 7.5, using 4×15 second pulses of a sonicator cell disrupter, model Some Dismembrator (Fisher Scientific, Hampton, N.J.) at a probe setting of 3. […] The pellet contained <5% of the incorporated sialic acid as determined using a radioactive tracer (data not shown.) The supernatant was therefore considered as the “total homogenate” fraction. A portion (20%) of the “total homogenate” fraction was taken for protein quantification and Sia analysis by DMB derivatization and HPLC analysis (as discussed below.) The remainder was centrifuged at 100,000×g for 1 h. […] All the Sias in these fractions were released with mild acid hydrolysis if necessary and then analyzed by HPLC after DMB derivatization. […]

[2] = tested on: normal human skin fibroblasts (WT); assay: Neu5Gc/ManNGc feeding experiment, normal human skin fibroblasts
Protocol: (§1) Cell Culture—Caco-2 cells were propagated in alpha-MEM containing GLUTAMAX™ (Invitrogen, San Diego, Calif.) and a mixture of ribonucleosides and deoxyribonucleosides (Gibco/Invitrogen, San Diego, Calif.) supplemented with 20% FCS. All the fibroblast cell lines and CHO-K1 cells were cultured in the same media supplemented respectively with 15% non-heat inactivated FCS or 10% heat inactivated FCS. Chimpanzee Fred and human […] EBV-transformed lymphoblasts were cultured in RPMI-1640 (Gibco/Invitrogen, San Diego, Calif.) supplemented with 10% heat inactivated FCS or 15% human serum. All of the cultures were maintained at 37° C., 5% CO2 atmosphere. In order to deplete any remaining Neu5Gc from FCS, the cells were split and cultured prior to Neu5Gc feeding experiments for at least 4 days in alpha-MEM supplemented with an adequate percentage of heat-inactivated premium human serum instead of FCS. The cells were then maintained under the same conditions during the whole feeding experiment. The human serum was heat inactivated at 56° C. for 30 min. before use.
(§2) Neu5Gc and ManNGc Feeding Experiment—Neu5Ac, Neu5Gc or ManNGc were dried, dissolved in the appropriate media supplemented with heat-inactivated human serum, sterilized using a Spin-X® (Corning Inc., Corning, N.Y.) and then added to the cells. The pH of the media containing Sia was adjusted to neutrality using sterilized 1M NaOH before starting the feeding experiment. Cells were cultured in the presence of up to 3 mM free Sia or ManNGc for 1 or 3 days at 37° C. At the end of the feeding, cells were washed with cold PBS, harvested either by scraping or with 2 mM EDTA for fibroblasts, and washed again with cold PBS prior to fractionation.
Fractionation of the Labeled Cells—Washed cell pellets were sonicated into 500 μL of 20 mM sodium phosphate buffer or 20 mM Tris-HCl, pH 7.5, using 4×15 second pulses of a sonicator cell disrupter, model Some Dismembrator (Fisher Scientific, Hampton, N.J.) at a probe setting of 3. The sonicate was centrifuged at 75×g for 15 min., and the pellet obtained consisted primarily of nuclei and unbroken cells. The pellet contained <5% of the incorporated sialic acid as determined using a radioactive tracer (data not shown.) The supernatant was therefore considered as the “total homogenate” fraction. A portion (20%) of the “total homogenate” fraction was taken for protein quantification and Sia analysis by DMB derivatization and HPLC analysis (as discussed below.) The remainder was centrifuged at 100,000×g for 1 h. The resulting pellet, called the “membrane” fraction, was then resuspended by sonication (15 sec.) in 200 μl of sodium acetate buffer, pH 5.5. The 100,000×g supernatant, called the “soluble” fraction was adjusted to 90% ethanol using absolute ice-cold ethanol, and placed overnight at −20° C. The flocculant precipitate, which represents the “soluble protein” fraction, was washed 3 times with 90% ice-cold ethanol and then resuspended in 200 μl of water. […] All the Sias in these fractions were released with mild acid hydrolysis if necessary and then analyzed by HPLC after DMB derivatization. Protein quantification was performed on the total homogenate, membrane and soluble protein fractions by using the BCA protein assay kit from Pierce (Rockford, Ill.) In some experiments, the resulting data obtained for the Sia bound to the membrane fraction and to the soluble proteins were pooled and presented here as a High Molecular Weight (HMW) fraction. […]

[3] = tested on: human neuroblastoma cells; assay: Neu5Gc feeding experiment, human neuroblastoma cells; details: neuroblastoma cells fed 3 mM for 3 days
Protocol: as §2
Fractionation of the Labeled Cells—Washed cell pellets were sonicated into 500 μL of 20 mM sodium phosphate buffer or 20 mM Tris-HCl, pH 7.5, using 4×15 second pulses of a sonicator cell disrupter, model Some Dismembrator (Fisher Scientific, Hampton, N.J.) at a probe setting of 3. […] The pellet contained <5% of the incorporated sialic acid as determined using a radioactive tracer (data not shown.) The supernatant was therefore considered as the “total homogenate” fraction. A portion (20%) of the “total homogenate” fraction was taken for protein quantification and Sia analysis by DMB derivatization and HPLC analysis (as discussed below.) The remainder was centrifuged at 100,000×g for 1 h. […]

[4] = tested on: human LB EBV-transformed lymphoblasts; assay: Neu5Gc/Neu5Ac feeding experiment, human EBV-transformed lymphoblasts; details: human lymphoblasts fed 3 mM for 3 days
Protocol: as §1
as §2, with “At the end of the feeding, cells were washed with cold PBS, harvested either by scraping or with 2 mM EDTA for fibroblasts, and washed again with cold PBS prior to fractionation.” left out
Fractionation of the Labeled Cells—Washed cell pellets were sonicated into 500 μL of 20 mM sodium phosphate buffer or 20 mM Tris-HCl, pH 7.5, using 4×15 second pulses of a sonicator cell disrupter, model Some Dismembrator (Fisher Scientific, Hampton, N.J.) at a probe setting of 3. […] The pellet contained <5% of the incorporated sialic acid as determined using a radioactive tracer (data not shown.) The supernatant was therefore considered as the “total homogenate” fraction. A portion (20%) of the “total homogenate” fraction was taken for protein quantification and Sia analysis by DMB derivatization and HPLC analysis (as discussed below.) The remainder was centrifuged at 100,000×g for 1 h. […] All the Sias in these fractions were released with mild acid hydrolysis if necessary and then analyzed by HPLC after DMB derivatization. Protein quantification was performed on the total homogenate, membrane and soluble protein fractions by using the BCA protein assay kit from Pierce (Rockford, Ill.) In some experiments, the resulting data obtained for the Sia bound to the membrane fraction and to the soluble proteins were pooled and presented here as a High Molecular Weight (HMW) fraction. […]

[5] = normal fibroblasts fed 3 mM for 3 days

Compound: O=C(CO)N[C@H]1[C@H]([C@H](O)[C@H](O)CO)OC(O)(C(=O)O)C[C@@H]1O (stereo partly drawn) [Neu5Gc, N-glycolylneuraminic acid]
- Neu5Gc as percent of total Sia, cytosolic low molecular weight (LMW) fraction [1]: 70%
- Neu5Gc as percent of total Sia, high molecular weight fraction (HMW) [1]: 46%
- Neu5Gc as percent of total Sia, total homogenate (TH) [1]: 58%
- Neu5Gc as percent of total Sia, HMW fraction [2, 5]: 39%
- Neu5Gc as percent of total Sia, TH fraction [2, 5]: 28%
- Neu5Gc as percent of total Sia, cytosolic LMW fraction [2, 5]: 41%
- percent of Neu5Gc incorporation into membrane-bound glycoconjugates ([2]; normal wild-type (WT) fibroblasts fed 3 mM for 3 days): 37%
- Neu5Gc incorporation efficiency [3]: efficiency comparable to the Caco-2 cells
- Neu5Gc as percent of total Sia, HMW fraction [4]: 51%
